These results are taken from paper PMC7611906 (Nature chemical biology, 2021).

For the experiment, the system named is caspase 3/7 in 22Rv1 cells. As to the kind of experiment: Caspase-Glo 3/7 assay 22Rv1. It counts as cell-based. The following applies: read-out: EC50 Caspase-Glo 3/7, 24h.

With `Cc1ncsc1-c1ccc([C@H](C)NC(=O)[C@@H]2C[C@@H](O)CN2C(=O)[C@@H](NC(=O)COCCCOCCNC(=O)C[C@@H]2N=C(c3ccc(Cl)cc3)c3c(sc(C)c3C)-n3c(C)nnc32)C(C)(C)C)cc1` [ARV-771], the EC50 amounted to 90 nM.
